Results published in ChEMBL document CHEMBL1158870, “Antitumor agents. 180. Chemical Studies and cytotoxic evaluation of cumingianosides and cumindysoside A, antileukemic triterpene glucosides with a 14,18-cycloapotirucallane skeleton” (1997).

Assays:
Type in all cases: functional
HT-29 = assay: Cytotoxicity against human HT29 cells by SRB assay
SW-620 = assay: Cytotoxicity against human SW620 cells by SRB assay
[1] = Cytotoxicity against human melanoma cells by SRB assay; details: Melanoma cell
[2] = Cytotoxicity against human renal cancer cells by SRB assay; details: Cancer cell lines
NSCLC = assay: Cytotoxicity against human NSCLC cells by SRB assay
[3] = Cytotoxicity against human ovarian cancer cells by SRB assay; details: Cancer cell lines
KM12 = assay: Cytotoxicity against human KM12 cells by SRB assay
COLO 205 = assay: Cytotoxicity against human COLO205 cells by SRB assay
HCT-15 = assay: Cytotoxicity against human HCT15 cells by SRB assay
[4] = Cytotoxicity against human Colon cancer cells by SRB assay; details: Cancer cell lines
[5] = Cytotoxicity against human CNS cancer cells by SRB assay; details: Cancer cell lines
HCT-116 = assay: Cytotoxicity against human HCT116 cells by SRB assay
Leukemia cell = assay: Cytotoxicity against human Leukemia cells by SRB assay
HCC 2998 = assay: Cytotoxicity against human HCC2998 cells by SRB assay

Structure (SMILES)	TGI (HT-29) [µM]	TGI (SW-620) [µM]	TGI [1] [µM]	TGI [2] [µM]	TGI (NSCLC) [µM]	TGI [3] [µM]	TGI (KM12) [µM]	TGI (COLO 205) [µM]	TGI (HCT-15) [µM]	TGI [4] [µM]	TGI [5] [µM]	TGI (HCT-116) [µM]	TGI (Leukemia cell) [µM]	TGI (HCC 2998) [µM]
COC(C)(C)[C@@H](O)[C@H](O)C[C@H](C)[C@@H]1CC[C@]23C[C@]12CC[C@@H]1[C@@]2(C)CC[C@@H](OC(C)=O)C(C)(C)[C@@H]2C[C@@H](O[C@@H]2O[C@H](COC(C)=O)[C@@H](O)[C@H](O)[C@H]2O)[C@]13C [CUMINGIANOSIDE C]	2.5	13.7	12.6	13.2	12.4	12	7.6	11.3	6.3	7.9	11.6	8.7	11.3	4.9
C=C(C)[C@@H](O)[C@H](O)C[C@H](C)[C@@H]1CC[C@]23C[C@]12CC[C@@H]1[C@@]2(C)CC[C@@H](OC(C)=O)C(C)(C)[C@@H]2C[C@@H](O[C@@H]2O[C@H](COC(C)=O)[C@@H](O)[C@H](O)[C@H]2O)[C@]13C [CUMINGIANOSIDE D]	8.77	12	12.2	12.7	11.7	12.7	11.3	12.6	10.4	11	10.9	9.27	8.2	12.4
CC(=O)OC[C@H]1O[C@@H](O[C@@H]2C[C@H]3C(C)(C)[C@H](OC(C)=O)CC[C@]3(C)[C@H]3CC[C@]45C[C@]4(CC[C@H]5[C@@H](C)C[C@@H](O)[C@H](O)C(C)(C)O)[C@@]32C)[C@H](O)[C@@H](O)[C@@H]1O [CUMINGIANOSIDE A]	14.3	14.4	13.7	13.5	13.1	13.6	14.2	14	13.9	13.9	13.3	13.8	18.5	12.9
C=C(C=O)[C@H](C)[C@@H]1CC[C@]23C[C@]12CC[C@@H]1[C@@]2(C)CC[C@@H](OC(C)=O)C(C)(C)[C@@H]2C[C@@H](O[C@@H]2O[C@H](COC(C)=O)[C@@H](O)[C@H](O)[C@H]2O)[C@]13C [CUMINDYSODIDE A]	11.9	1.4	6.9	10.8	12.5	10.4	9.5	1.4	7.5	5	1.4	1.4	4	1.4
